Test system: MiaPaCa-2 cells
Test: MiaPaCa-2 Cell proliferation assay in 3D culture (CCK8)
Assay type: cell-based
Conditions: Homo sapiens, MIA PaCa-2, 120 h; 3D spheroid culture, 5 days with compound, CCK8 readout
Procedure: MiaPaCa-2 Cell proliferation assay in 3D culture. To evaluate cell viability, MiaPaCa-2 cells in logarithmic growth phase were seeded at optimal density and grown in as spheroids. Cells were incubated for 24 hours prior to the addition of different concentrations of the compounds. Cells were cultured with the compounds for 5 days and the cell viability was assessed using CCK8. Briefly, 2500 cells were seeded in round bottom ultra-low attachment 96 well plates (coming) in growth media supplemented with 10% FBS and incubated at 37° C. for 24 hours. The compounds were dissolved in DMSO (Sigma) to obtain 10 mM stock solution. Then the compounds were serially diluted in 3-fold to ten concentrations; 5 μL of the dilution above was transferred to 95 uL culture media to obtain the 50× compound stock solution; 4 uL of the 50× compound above was then transferred to the wells containing cells with 196 μL of the culture medium to obtain the final 1× concentration. The final concentration of DMSO was 0.1%. Spheroid cells were incubated in compounds for 5 days. Then 20 μL WST-8 solution (DOJINDO, Cell Counting KIT-8) was added to each well. The plates were further incubated at 37° C. for 1.5 hours, and then absorbance at 450 nm was measured using a microplate reader. Each compound was tested in triplicate and the IC50 value was calculated using GraphPad Prism.
The IC50 values of for Compounds disclosed are listed in Table 2, A: ≤500 nM; B: >500 nM and ≤5 μM; C: >5 μM and ≤50 μM; and D: >50 μM.

| IC50 [nM] | SMILES |
| --- | --- |
| 500 to 5000 | C[C@@H]1OCC2(CCN(c3ncc(Sc4ccnc(NC(=O)NS(=O)(=O)c5ccccc5)c4Cl)c4nncn34)CC2)[C@@H]1N [Example 15, N-((4-((5-((3S,4S)-4-amino-3-methyl-2-oxa-8-azaspiro[4.5]decan-8-yl)[1,2,4]triazolo[4,3-c]pyrimidin-8-yl)thio)-3-chloropyridin-2-yl)carbamoyl)benzenesulfonamide] |
| ≤ 500 | COc1ccc(S(=O)(=O)NC(=O)Nc2cccc(Sc3cnc(N4CCC5(CC4)CO[C@@H](C)[C@H]5N)cn3)c2Cl)cn1 [Example 64, N-((3-((5-((3S,4S)-4-amino-3-methyl-2-oxa-8-azaspiro[4.5]decan-8-yl)pyrazin-2-yl)thio)-2-chlorophenyl)carbamoyl)-6-methoxypyridine-3-sulfonamide] |
| 500 to 5000 | C[C@@H]1OCC2(CCN(c3cnc(Sc4ccnc(C(=O)NS(=O)(=O)c5ccccc5)c4Cl)cn3)CC2)[C@@H]1N [Example 71, 4-((5-((3S,4S)-4-amino-3-methyl-2-oxa-8-azaspiro[4.5]decan-8-yl)pyrazin-2-yl)thio)-3-chloro-N-(phenylsulfonyl)picolinamide] |
| ≤ 500 | C[C@@H]1OCC2(CCN(c3cnc(Sc4ccnc(NC(=O)NS(=O)(=O)c5ccccc5)c4Cl)cn3)CC2)[C@@H]1N [Example 6, N-((4-((5-((3S,4S)-4-amino-3-methyl-2-oxa-8-azaspiro[4.5]decan-8-yl)pyrazin-2-yl)thio)-3-chloropyridin-2-yl)carbamoyl)benzenesulfonamide] |
| ≤ 500 | C[C@@H]1OCC2(CCN(c3cnc(Sc4cccc(NC(=O)NS(=O)(=O)N5CCCC5)c4Cl)cn3)CC2)[C@@H]1N [Example 13, N-((3-((5-((3S,4S)-4-amino-3-methyl-2-oxa-8-azaspiro[4.5]decan-8-yl)pyrazin-2-yl)thio)-2-chlorophenyl)carbamoyl)pyrrolidine-1-sulfonamide] |
| ≤ 500 | C[C@@H]1OCC2(CCN(c3cnc(Sc4ccnc(NC(=O)NS(=O)(=O)c5cncc(F)c5)c4Cl)cn3)CC2)[C@@H]1N [Example 58, N-((4-((5-((3S,4S)-4-amino-3-methyl-2-oxa-8-azaspiro[4.5]decan-8-yl)pyrazin-2-yl)thio)-3-chloropyridin-2-yl)carbamoyl)-5-fluoropyridine-3-sulfonamide] |
| ≤ 500 | C[C@@H]1OCC2(CCN(c3cnc(Sc4ccnc(NC(=O)NS(=O)(=O)C5CC5)c4Cl)cn3)CC2)[C@@H]1N [Example 57, N-((4-((5-((3S,4S)-4-amino-3-methyl-2-oxa-8-azaspiro[4.5]decan-8-yl)pyrazin-2-yl)thio)-3-chloropyridin-2-yl)carbamoyl)cyclopropanesulfonamide] |
| ≤ 500 | C[C@@H]1OCC2(CCN(c3cnc(Sc4ccnc(NC(=O)NS(=O)(=O)c5ccccc5)c4F)cn3)CC2)[C@@H]1N [Example 56, N-((4-((5-((3S,4S)-4-amino-3-methyl-2-oxa-8-azaspiro[4.5]decan-8-yl)pyrazin-2-yl)thio)-3-fluoropyridin-2-yl)carbamoyl)benzenesulfonamide] |
| ≤ 500 | C[C@@H]1OCC2(CCN(c3cnc(Sc4cccc(NC(=O)NS(=O)(=O)c5ccccn5)c4Cl)cn3)CC2)[C@@H]1N [Example 63, N-((3-((5-((3S,4S)-4-amino-3-methyl-2-oxa-8-azaspiro[4.5]decan-8-yl)pyrazin-2-yl)thio)-2-chlorophenyl)carbamoyl)pyridine-2-sulfonamide] |
| ≤ 500 | Cc1noc(C)c1S(=O)(=O)NC(=O)Nc1nccc(Sc2cnc(N3CCC4(CC3)CO[C@@H](C)[C@H]4N)cn2)c1Cl [Example 76, N-((4-((5-((3S,4S)-4-amino-3-methyl-2-oxa-8-azaspiro[4.5]decan-8-yl)pyrazin-2-yl)thio)-3-chloropyridin-2-yl)carbamoyl)-3,5-dimethylisoxazole-4-sulfonamide] |

More lines, now with the values behind:

| SMILES | IC50 [nM] |
| --- | --- |
| C[C@@H]1OCC2(CCN(c3cnc(Sc4cccc(NC(=O)NS(=O)(=O)N5CCOCC5)c4Cl)cn3)CC2)[C@@H]1N [Example 74, N-((3-((5-((3S,4S)-4-amino-3-methyl-2-oxa-8-azaspiro[4.5]decan-8-yl)pyrazin-2-yl)thio)-2-chlorophenyl)carbamoyl)morpholine-4-sulfonamide] | ≤ 500 |
| CC1(CN)CCN(c2cnc(Sc3cccc(NC(=O)NS(=O)(=O)c4cccnc4)c3Cl)c(N)n2)CC1 [Example 46, N-((3-((3-amino-5-(4-(aminomethyl)-4-methylpiperidin-1-yl)pyrazin-2-yl)thio)-2-chlorophenyl)carbamoyl)pyridine-3-sulfonamide] | ≤ 500 |
| C[C@@H]1OCC2(CCN(c3cnc(Sc4cccc(NC(=O)NS(=O)(=O)c5ccccc5)c4Cl)cn3)CC2)[C@@H]1N [Example 49, N-((3-((5-((3S,4S)-4-amino-3-methyl-2-oxa-8-azaspiro[4.5]decan-8-yl)pyrazin-2-yl)thio)-2-chlorophenyl)carbamoyl)benzenesulfonamide] | ≤ 500 |
| N[C@@H]1c2cnccc2CC12CCN(c1cnc(Sc3cccc(NC(=O)NS(=O)(=O)c4ccccc4)c3Cl)cn1)CC2 [Example 67, (S)—N-((3-((5-(7-amino-5,7-dihydrospiro[cyclopenta[c]pyridine-6,4′-piperidin]-1′-yl)pyrazin-2-yl)thio)-2-chlorophenyl)carbamoyl)benzenesulfonamide] | ≤ 500 |
| C[C@@H]1OCC2(CCN(c3cnc(Sc4cccc(NC(=O)NS(=O)(=O)C5CCC5)c4Cl)cn3)CC2)[C@@H]1N [Example 82, N-((3-((5-((3S,4S)-4-amino-3-methyl-2-oxa-8-azaspiro[4.5]decan-8-yl)pyrazin-2-yl)thio)-2-chlorophenyl)carbamoyl)cyclobutanesulfonamide] | ≤ 500 |
| Cc1nc(N2CCC3(CC2)CO[C@@H](C)[C@H]3N)c(CO)nc1Sc1cccc(NC(=O)NS(=O)(=O)c2ccccc2)c1Cl [Example 11, N-((3-((5-((3S,4S)-4-amino-3-methyl-2-oxa-8-azaspiro[4.5]decan-8-yl)-6-(hydroxymethyl)-3-methylpyrazin-2-yl)thio)-2-chlorophenyl)carbamoyl)benzenesulfonamide] | ≤ 500 |
| C[C@@H]1OCC2(CCN(c3cnc(Sc4cccc(NC(=O)NS(=O)(=O)c5cccnc5)c4Cl)cn3)CC2)[C@@H]1N [Example 61, N-((3-((5-((3S,4S)-4-amino-3-methyl-2-oxa-8-azaspiro[4.5]decan-8-yl)pyrazin-2-yl)thio)-2-chlorophenyl)carbamoyl)pyridine-3-sulfonamide] | ≤ 500 |
| C[C@@H]1OCC2(CCN(c3cnc(Sc4cccc(NC(=O)NS(=O)(=O)C5CCOCC5)c4Cl)cn3)CC2)[C@@H]1N [Example 68, N-((3-((5-((3S,4S)-4-amino-3-methyl-2-oxa-8-azaspiro[4.5]decan-8-yl)pyrazin-2-yl)thio)-2-chlorophenyl)carbamoyl)tetrahydro-2H-pyran-4-sulfonamide] | ≤ 500 |
| C[C@@H]1OCC2(CCN(c3cnc(Sc4cccc(S(=O)(=O)NC(=O)NC5CCCC5)c4Cl)cn3)CC2)[C@@H]1N [Example 17, 3-((5-((3S,4S)-4-amino-3-methyl-2-oxa-8-azaspiro[4.5]decan-8-yl)pyrazin-2-yl)thio)-2-chloro-N-(cyclopentylcarbamoyl)benzenesulfonamide] | ≤ 500 |
| C[C@@H]1OCC2(CCN(c3cnc(Sc4cccc(NC(=O)NS(=O)(=O)N5CCC(O)C5)c4Cl)cn3)CC2)[C@@H]1N (stereo partly drawn) [Example 81, N-((3-((5-((3S,4S)-4-amino-3-methyl-2-oxa-8-azaspiro[4.5]decan-8-yl)pyrazin-2-yl)thio)-2-chlorophenyl)carbamoyl)-3-hydroxypyrrolidine-1-sulfonamide] | ≤ 500 |
| C[C@@H]1OCC2(CCN(c3cnc(Sc4ccnc(NC(=O)NS(=O)(=O)c5cnn(C)c5)c4Cl)cn3)CC2)[C@@H]1N [Example 55, N-((4-((5-((3S,4S)-4-amino-3-methyl-2-oxa-8-azaspiro[4.5]decan-8-yl)pyrazin-2-yl)thio)-3-chloropyridin-2-yl)carbamoyl)-1-methyl-1H-pyrazole-4-sulfonamide] | ≤ 500 |
| C[C@@H]1OCC2(CCN(c3cnc(Sc4cccc(NS(=O)(=O)NC(=O)N5CCCC5)c4Cl)cn3)CC2)[C@@H]1N [Example 16, N—(N-(3-((5-((3S,4S)-4-amino-3-methyl-2-oxa-8-azaspiro[4.5]decan-8-yl)pyrazin-2-yl)thio)-2-chlorophenyl)sulfamoyl)pyrrolidine-1-carboxamide] | ≤ 500 |
| C[C@@H]1OCC2(CCN(c3cnc(Sc4cccc(NS(=O)(=O)NC(=O)Nc5ccccc5)c4Cl)cn3)CC2)[C@@H]1N [Example 12, ((3S,4S)-8-(5-((2-chloro-3-((N-(phenylcarbamoyl)sulfamoyl)amino)phenyl)thio)pyrazin-2-yl)-3-methyl-2-oxa-8-azaspiro[4.5]decan-4-yl)amine] | ≤ 500 |
| C[C@@H]1OCC2(CCN(c3cnc(Sc4cncc(NC(=O)NS(=O)(=O)c5ccccc5)c4Cl)cn3)CC2)[C@@H]1N [Example 60, N-((5-((5-((3S,4S)-4-amino-3-methyl-2-oxa-8-azaspiro[4.5]decan-8-yl)pyrazin-2-yl)thio)-4-chloropyridin-3-yl)carbamoyl)benzenesulfonamide] | 500 to 5000 |
